The target in one assay is CI-M6PR (Homo sapiens (Human), UniProt P11717). Nature of the assay: Competitive binding of M6P analogs to biotinylated CI-M6PR on adsorbed pentamannose 6-phosphate (PMP). To be noted: for Relative affinity: relative to M6C-Ethyl-NH2 taken as reference = 1. Here is the method: 96-Well plates (Maxisorp Nunc) are incubated overnight at 4° C. with 200 μl of PMP (pentamannose 6-phosphate) at the concentration of 200 μg·ml^−1, in carbonate buffer (NaHCO3/Na2CO3 at 0.1M, pH 9.6). The following day, the solution containing the residual PMP is discarded and the wells are saturated, for 1 h at ambient temperature, with 360 μl of 1% gelatin (Type A from Porcine Skin) diluted in PBS (1.9 mM NaH2PO4, 8.1 mM Na2PO4 and 154 mM NaCl, pH 7.4). The wells are then rinsed five times with PBS to which 0.2% gelatin has been added. All the washes and also the dilutions are carried out in the solution of PBS to which 0.2% gelatin has been added. The M6P analogs to be tested at the various concentrations (from 10^−2 to 10^−7 M) are pre-incubated in the presence of pre-biotinylated CI-M6PR (M6PRb) ([…]) for 20 min, then 200 μl of the mixture are incubated in the wells for 2 h, at ambient temperature. After three washes, the wells are incubated for 1 h with a streptavidin-peroxidase solution (250 μl per well; 3.10^−8 M). After three more washes, 200 μl of a solution of OPD (o-phenylenediamine, 1 mg·ml^−1 in citrate buffer, pH 5.0, and 1 μl 30% H2O2.ml^−1; Sigma Aldrich) are added. After incubation for 20 min in the dark at ambient temperature, the optical densities are measured at the wavelength of 450 nm.
The conjugate of formula (III) is evaluated for its affinity with CI-M6PR. The binding affinity of rhGAA and of the rhGAA-M6Pn-α(1,2)-Man-Ethyloxyamino conjugate (28) was evaluated by means of a competitive binding technique with CI-M6PR described in example 2 and compared with the affinity of M6P.

Assay [1] deals with myoblasts of patients suffering from the adult form of Pomp disease. As to the kind of experiment: Internalization: GAA catalytic activity (4-MUG substrate) in cell extracts of treated myoblasts. Format: cell-based, human. The settings on record: 50 nM, 48 h incubation; compared with rhGAA. The procedure:
The myoblast-type cells originating from an adult patient suffering from Pomp disease are maintained in primary culture.
The catalytic activity of GAA is measured in the cell extracts using the synthetic substrate 4-methylumbelliferyl-α-D-glucopyranoside (4-MUG). This substrate and the molecular weight standards are obtained from Sigma. The GAA activity in the cell extracts (20 μl) is measured in a reaction volume of 75 μl containing 50 mM citric acid, 115 mM K2HPO4, 110 mM KCl, 10 mM NaCl, pH 5.0, with 6 mM 4-MUG, for 10 min at ambient temperature. The reaction is stopped with 75 μl of 0.1 M Tris HCl, pH 8. The fluorescence is read with an excitation filter at 355 nm and an emission filter at 460 nm in 96-well plates, and compared to a standard curve obtained with 4-methylumbelliferone. The catalytic activity is expressed per mg of protein. Mean±standard deviation.

The test system of assay [2] is myoblasts from an adult patient suffering from Pomp disease. Nature of the assay: Cellular maturation of internalized GAA by Western blot. Format: cell-based, human. To be noted: 50 nM, 48 h incubation, healthy subject myoblasts = 100%. The procedure: The myoblasts are incubated for 48 h in the presence of 50 nM rhGAA or of the rhGAA-M6Pn-α(1,2)-Man-Ethyloxyamino conjugate (28) (conjugate of formula (III)), then lysed and the proteins are extracted. The cellular maturation of the internalized GAA enzyme in the myoblasts of patients suffering from Pomp disease is studied by the SDS polyacrylamide gel separation technique, followed by immunodetection of the GAA by Western blot with an anti-human GAA antibody (anti-LYAG, Genetex) or an anti-human actin antibody (Invitrogen). […] This experiment is representative among two experiments. The thick arrow in FIG. 4 indicates the intermediate form of GAA. The black arrow indicates the mature form of GAA (60-70 kDa).
The mature form of 60 kDa is quantified by considering the band present in the myoblasts originating from a healthy subject to be 100%. The expression of GAA 60 kDa in the patient myoblasts corresponds to 1% of the GAA of a healthy subject and is not increased in the myoblasts treated with rhGAA. Conversely, the treatment with the rhGAA-M6Pn-α(1,2)-Man-Ethyloxyamino conjugate (28) increases the 60-70 kDa band to 47% of the GAA of a healthy subject. […] This activity is important for an application in the treatment of Pomp disease by enzyme therapy, but can also be applicable to all lysosomal diseases.
Background: A western blot detects proteins with antibodies after separation by electrophoresis.

Setting [3] is: inhibition of CI-M6PR binding to adsorbed PMP, Table 1, read-out: IC50.
The mark [4] stands for this setting: competitive binding technique of example 2, Example 4 experiments, read-out: 50% inhibitory concentration (IC50), affinity for CI-M6PR.

Like-named read-outs stand apart in the source and are kept apart here.

Chain of CI-M6PR (P11717 41-2491): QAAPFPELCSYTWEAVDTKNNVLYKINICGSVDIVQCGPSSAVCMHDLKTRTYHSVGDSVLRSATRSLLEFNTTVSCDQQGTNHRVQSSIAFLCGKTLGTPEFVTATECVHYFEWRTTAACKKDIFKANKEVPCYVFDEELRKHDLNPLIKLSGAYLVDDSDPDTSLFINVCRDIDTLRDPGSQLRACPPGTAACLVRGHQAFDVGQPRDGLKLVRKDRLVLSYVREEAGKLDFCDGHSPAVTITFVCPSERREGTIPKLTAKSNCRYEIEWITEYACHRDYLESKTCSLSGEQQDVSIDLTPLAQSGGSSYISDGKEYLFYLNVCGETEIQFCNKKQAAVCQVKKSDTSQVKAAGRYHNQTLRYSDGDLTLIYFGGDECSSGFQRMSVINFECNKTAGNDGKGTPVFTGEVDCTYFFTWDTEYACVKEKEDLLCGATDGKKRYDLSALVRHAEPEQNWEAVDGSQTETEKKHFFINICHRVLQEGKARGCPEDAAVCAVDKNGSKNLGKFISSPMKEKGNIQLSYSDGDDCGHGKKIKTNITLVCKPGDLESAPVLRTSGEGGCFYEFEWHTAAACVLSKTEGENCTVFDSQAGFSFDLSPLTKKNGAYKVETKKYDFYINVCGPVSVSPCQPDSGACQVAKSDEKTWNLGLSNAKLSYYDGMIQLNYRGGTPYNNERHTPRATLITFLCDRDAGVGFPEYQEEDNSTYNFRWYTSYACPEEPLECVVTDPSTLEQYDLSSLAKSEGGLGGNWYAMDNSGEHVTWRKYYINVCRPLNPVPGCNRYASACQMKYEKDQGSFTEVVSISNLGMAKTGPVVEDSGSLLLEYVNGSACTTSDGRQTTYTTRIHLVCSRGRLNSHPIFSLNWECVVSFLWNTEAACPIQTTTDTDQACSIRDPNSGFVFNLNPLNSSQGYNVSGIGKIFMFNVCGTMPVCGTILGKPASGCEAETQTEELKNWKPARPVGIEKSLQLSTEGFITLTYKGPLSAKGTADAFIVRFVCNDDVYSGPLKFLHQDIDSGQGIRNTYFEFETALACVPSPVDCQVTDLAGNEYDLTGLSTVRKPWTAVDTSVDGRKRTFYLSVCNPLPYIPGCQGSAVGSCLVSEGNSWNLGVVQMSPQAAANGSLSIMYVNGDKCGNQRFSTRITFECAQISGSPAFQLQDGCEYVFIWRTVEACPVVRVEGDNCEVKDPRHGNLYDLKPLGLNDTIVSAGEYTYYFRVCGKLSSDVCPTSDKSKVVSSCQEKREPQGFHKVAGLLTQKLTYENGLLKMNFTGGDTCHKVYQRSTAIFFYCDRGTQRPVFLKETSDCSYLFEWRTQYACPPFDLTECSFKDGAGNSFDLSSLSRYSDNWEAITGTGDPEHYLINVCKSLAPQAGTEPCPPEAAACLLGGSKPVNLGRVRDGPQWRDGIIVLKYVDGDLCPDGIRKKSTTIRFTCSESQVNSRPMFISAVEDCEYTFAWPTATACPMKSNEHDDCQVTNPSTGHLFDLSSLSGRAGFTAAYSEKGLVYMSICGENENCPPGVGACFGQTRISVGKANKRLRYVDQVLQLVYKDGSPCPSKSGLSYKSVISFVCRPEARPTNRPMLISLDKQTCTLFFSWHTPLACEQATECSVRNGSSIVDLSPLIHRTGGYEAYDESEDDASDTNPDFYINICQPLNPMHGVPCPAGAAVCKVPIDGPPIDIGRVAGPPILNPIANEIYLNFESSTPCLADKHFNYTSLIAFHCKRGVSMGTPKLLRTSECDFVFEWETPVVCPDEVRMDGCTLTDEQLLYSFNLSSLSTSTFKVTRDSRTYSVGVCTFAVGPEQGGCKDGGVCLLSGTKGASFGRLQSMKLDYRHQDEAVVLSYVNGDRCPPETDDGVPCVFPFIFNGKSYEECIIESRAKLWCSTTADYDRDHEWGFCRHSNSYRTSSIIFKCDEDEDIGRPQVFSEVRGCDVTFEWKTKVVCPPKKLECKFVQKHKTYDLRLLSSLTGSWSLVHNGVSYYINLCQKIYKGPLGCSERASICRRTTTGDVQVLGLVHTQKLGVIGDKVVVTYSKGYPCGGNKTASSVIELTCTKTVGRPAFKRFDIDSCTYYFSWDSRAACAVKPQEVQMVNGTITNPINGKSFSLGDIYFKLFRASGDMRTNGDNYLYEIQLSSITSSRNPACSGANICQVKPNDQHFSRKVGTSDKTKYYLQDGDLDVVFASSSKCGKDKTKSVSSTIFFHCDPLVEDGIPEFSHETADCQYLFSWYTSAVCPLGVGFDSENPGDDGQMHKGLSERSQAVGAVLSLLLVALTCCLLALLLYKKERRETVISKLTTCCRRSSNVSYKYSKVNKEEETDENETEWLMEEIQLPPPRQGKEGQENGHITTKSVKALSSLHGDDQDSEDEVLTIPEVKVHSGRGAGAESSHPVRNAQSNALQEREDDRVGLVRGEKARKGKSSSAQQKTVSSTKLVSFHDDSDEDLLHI

For the compound `NCCO[C@H]1O[C@H](CO)[C@@H](O)[C@H](O)[C@@H]1O[C@H]1O[C@H](CCC(=O)O)[C@@H](O)[C@H](O)[C@@H]1O` [Compound 24, aminoethyl 6,7-dideoxy-7-hydroxycarbonyl-α-D-manno-heptopyranosyl-(1→2)-α-D-mannopyranoside], the IC50 at CI-M6PR (setting [3]) amounted to 17 µM. For the same compound, the Relative affinity at CI-M6PR came to 5.8.

On to `O=C[C@@H](O)[C@@H](O)[C@H](O)[C@H](O)COP(=O)(O)O` [Compound M6P, mannose 6-phosphate], for which the IC50 on CI-M6PR (setting [4]) was 30 µM.

Consider `NCCO[C@H]1OC(CCC(=O)O)[C@@H](O)[C@H](O)C1O` (stereo partly drawn) [M6C-Ethyl-NH2], for which, at CI-M6PR (setting [3]), the IC50 came out at 99 µM. For the same compound, at CI-M6PR, the Relative affinity was 1.

Take `NCCO[C@H]1OC(CCP(=O)(O)O)[C@@H](O)[C@H](O)C1O` (stereo partly drawn) [M6Pn-Ethyl-NH2]: on CI-M6PR (setting [3]), the IC50 worked out at 29 µM. For the same compound, the Relative affinity at CI-M6PR is listed as 3.4.

Consider “rhGAA-M6Pn-α(1,2)-Man-Ethyloxyamino (28): rhGAA functionalized on oligosaccharide chains with phosphonate disaccharide analog 28; conjugate of formula (III)”, for which, in assay [1], the “cell penetration of GAA measured through catalytic activity on 4-MUG” value is “significantly increases”. For the same compound, in assay [2], the “mature form of GAA (60-70 kDa band), % of the GAA of a healthy subject” value was determined as 47%.

Consider “rhGAA: recombinant human acid alpha-glucosidase produced in CHO cells, approximately 110 000 Da”, for which the IC50 in the assay with CI-M6PR (setting [4]) came out at 0.3 µM. For the same compound, the “affinity for CI-M6PR, times lower than the rhGAA-M6Pn-α(1,2)-Man-Ethyloxyamino conjugate (28)” value with CI-M6PR (ratio of IC50 values) turned out to be 5.5 times. Moreover, the “mature form of GAA (60-70 kDa band), % of the GAA of a healthy subject” value in assay [2] is given as “not increased”.

Values taken from patent US10894803B2, “Multi-functionalized polysaccharide compounds and use thereof for targeting the cation-independent mannose 6-phosphate receptor” (NANOMEDSYN, priority 2015, dated 2021).
